# Test results published in patent US10131652B2, “Pyrimidinyloxy benzene derivatives as herbicides” (E. I. DU PONT DE NEMOURS AND COMPANY, priority 2014, dated 2018).
# How the values were obtained:
# Type in all cases: in vivo
# [1] = test system: small-flower umbrella sedge (Cyperus difformis); test: Test C flooded paddy test plant response; details: Flood, 250 g ai/ha; scale of 0 to 100 where 0 is no effect and 100 is complete control; 13 to 15 days
# Outline: (§1)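 Scored visually on a 0–100 scale (100 = complete control) against untreated plants 13 to 15 days after treatment in the greenhouse. Compounds went into paddy water of pots flooded to 3 cm, holding 2-leaf-stage plants.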
# [2] = test system: barnyardgrass (Echinochloa crus-galli); test: Test C flooded paddy test plant response; details: Flood, 250 g ai/ha; scale of 0 to 100 where 0 is no effect and 100 is complete control; 13 to 15 days
# Outline: as §1
# [3] = test system: rice (Oryza sativa); test: Test C flooded paddy test plant response; details: Flood, 250 g ai/ha; scale of 0 to 100 where 0 is no effect and 100 is complete control; 13 to 15 days
# Outline: as §1
# [4] = test system: ducksalad (Heteranthera limosa); test: Test C flooded paddy test plant response; details: Flood, 250 g ai/ha; scale of 0 to 100 where 0 is no effect and 100 is complete control; 13 to 15 days
# Outline: as §1
# [5] = test system: chickweed (common chickweed, Stellaria media); test: Test D postemergence plant response; details: for Plant response rating (scale 0 to 100), Chickweed: 16 g ai/ha; for Chickweed plant response rating: 31 g ai/ha, scale 0 to 100 (0 no effect, 100 complete control); for Plant response rating, Chickweed: scale 0 to 100, 0 no effect, 100 complete control
# Outline: (§2)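 Plants grown in pots of peat moss–vermiculite medium with wetting agent and starter nutrients received postemergence applications of the formulated test chemicals at 2 to 18 cm height (1- to 4-leaf stage). After 13 to 15 days in a greenhouse, injury was scored visually against untreated controls, 0 (no effect) to 100 (complete control).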
# [6] = test system: wild oat (Avena fatua); test: Test D postemergence plant response; details: for Plant response rating (scale 0 to 100), Oat, Wild: 16 g ai/ha; for Plant response rating, Oat, Wild: 125 g ai/ha
# Outline: as §2
# [7] = test system: kochia (Kochia scoparia); test: Test D postemergence plant response; details: for Plant response rating (scale 0 to 100), Kochia: 16 g ai/ha; for Kochia plant response rating: 31 g ai/ha, scale 0 to 100 (0 no effect, 100 complete control); for Plant response rating, Kochia: scale 0 to 100, 0 no effect, 100 complete control
# Outline: as §2
# [8] = test system: barnyardgrass (Echinochloa crus-galli); test: Test B pre-/postemergence plant response
# Outline: (§3)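 Visual injury rating, 0 (no effect) to 100 (complete control), vs untreated controls after ~10 d greenhouse. Pre: directed soil spray after planting in loam/sand. Post: plants 2–10 cm, 1–2 leaf stage. Compound in non-phytotoxic solvent plus surfactant.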
# [9] = test system: ragweed (common ragweed, Ambrosia elatior); test: Test B pre-/postemergence plant response
# Outline: as §3
# [10] = test system: Italian ryegrass (Lolium multiflorum); test: Test B pre-/postemergence plant response
# Outline: as §3
# [11] = test system: corn (Zea mays); test: Test B pre-/postemergence plant response
# Outline: as §3
# [12] = test system: pigweed (Amaranthus retroflexus); test: Test B pre-/postemergence plant response
# Outline: as §3
# [13] = test system: giant foxtail (Setaria faberii); test: Test B pre-/postemergence plant response
# Outline: as §3
# [14] = test system: wheat (Triticum aestivum); test: Test B pre-/postemergence plant response
# Outline: as §3
# [15] = test system: kochia (Kochia scoparia); test: Test B pre-/postemergence plant response
# Outline: as §3
# [16] = test system: galium (catchweed bedstraw, Galium aparine); test: Test B postemergence plant response
# Outline: (§4)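 Plants grown in pots of loam soil–sand blend were sprayed postemergence with formulated test chemicals at 2 to 10 cm height, one- to two-leaf stage. After about 10 days in a greenhouse, injury was visually rated against untreated controls on a 0 to 100 scale (0 no effect, 100 complete control).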
# [17] = test system: blackgrass (Alopecurus myosuroides); test: Test B postemergence plant response
# Outline: as §4
# [18] = 31 g ai/ha, scale 0 to 100 (0 no effect, 100 complete control)
# [19] = 62 g ai/ha, scale 0 to 100, 0 no effect, 100 complete control
# [20] = scale 0 to 100, 0 no effect, 100 complete control
# [21] = 31 g ai/ha, Preemergence, 0 to 100 scale where 0 is no effect and 100 is complete control
# [22] = 125 g ai/ha, postemergence, 0 to 100 scale, 0 no effect, 100 complete control
# [23] = Postemergence, 31 g ai/ha, 0 to 100 scale (0 no effect, 100 complete control)
# [24] = Preemergence, 125 g ai/ha, 0 to 100 scale (0 no effect, 100 complete control)
smiles,measurement,setting,value
Fc1ccc(Oc2ncc(Cl)cn2)c(-c2cc(C(F)(Cl)Cl)on2)c1 [Compound 221],"Sedge, Umbrella plant response rating",[1],95
same,Barnyardgrass plant response rating,[2],0
same,Rice plant response rating,[3],0
same,Ducksalad plant response rating,[4],100
same,"Plant response rating (scale 0 to 100), Chickweed",[5],75
same,Chickweed plant response rating,[5],85
same,"Plant response rating, Chickweed",[5]; 62 g ai/ha,80
same,"Plant response rating, Chickweed",[5]; 125 g ai/ha,100
same,"Plant response rating (scale 0 to 100), Oat, Wild",[6],5
same,"Oat, Wild plant response rating",[6]; [18],10
same,"Oat, Wild plant response rating",[6]; [19],10
same,"Plant response rating, Oat, Wild",[6]; [20],35
same,"Plant response rating (scale 0 to 100), Kochia",[7],98
same,Kochia plant response rating,[7],100
same,"Plant response rating, Kochia",[7]; 62 g ai/ha,100
same,"Plant response rating, Kochia",[7]; 125 g ai/ha,100
same,"Plant response rating, Barnyardgrass",[8]; [21],20
same,"Plant response rating, Barnyardgrass",[8]; [22],90
same,"Plant response rating, Barnyardgrass",[8]; [23],10
same,Barnyardgrass plant response rating,[8]; [24],90
same,"Plant response rating, Ragweed",[9]; [21],0
same,"Plant response rating, Ragweed",[9]; [22],50
same,"Plant response rating, Ragweed",[9]; [23],10
same,Ragweed plant response rating,[9]; [24],0
same,"Plant response rating, Ryegrass, Italian",[10]; [21],20
same,"Plant response rating, Ryegrass, Italian",[10]; [22],40
same,"Plant response rating, Ryegrass, Italian",[10]; [23],0
same,"Ryegrass, Italian plant response rating",[10]; [24],40
same,"Plant response rating, Corn",[11]; [22],50
same,"Plant response rating, Corn",[11]; [23],20
same,"Plant response rating, Pigweed",[12]; [21],100
same,"Plant response rating, Pigweed",[12]; [22],90
same,"Plant response rating, Pigweed",[12]; [23],90
same,Pigweed plant response rating,[12]; [24],100
same,"Plant response rating, Foxtail, Giant",[13]; [21],50
same,"Plant response rating, Foxtail, Giant",[13]; [22],90
same,"Plant response rating, Foxtail, Giant",[13]; [23],10
same,"Foxtail, Giant plant response rating",[13]; [24],90
same,"Plant response rating, Wheat",[14]; [22],30
same,"Plant response rating, Wheat",[14]; [23],20
same,"Plant response rating, Kochia",[15]; [21],50
same,"Plant response rating, Kochia",[15]; [22],100
same,"Plant response rating, Kochia",[15]; [23],80
same,Kochia plant response rating,[15]; [24],70
same,"Plant response rating, Galium",[16]; [22],100
same,"Plant response rating, Galium",[16]; [23],90
same,"Plant response rating, Blackgrass",[17]; [22],60
same,"Plant response rating, Blackgrass",[17]; [23],30
FCc1cc(-c2ccccc2Oc2ncc(Cl)cn2)on1 [Compound 224],"Sedge, Umbrella plant response rating",[1],65
same,Barnyardgrass plant response rating,[2],0
same,Rice plant response rating,[3],0
same,Ducksalad plant response rating,[4],70
same,"Plant response rating (scale 0 to 100), Chickweed",[5],10
same,Chickweed plant response rating,[5],15
same,"Plant response rating, Chickweed",[5]; 62 g ai/ha,40
same,"Plant response rating, Chickweed",[5]; 125 g ai/ha,80
same,"Plant response rating (scale 0 to 100), Oat, Wild",[6],0
same,"Oat, Wild plant response rating",[6]; [18],0
same,"Oat, Wild plant response rating",[6]; [19],0
same,"Plant response rating, Oat, Wild",[6]; [20],0
same,"Plant response rating (scale 0 to 100), Kochia",[7],35
same,Kochia plant response rating,[7],70
same,"Plant response rating, Kochia",[7]; 62 g ai/ha,95
same,"Plant response rating, Kochia",[7]; 125 g ai/ha,100
same,"Plant response rating, Barnyardgrass",[8]; [21],10
same,"Plant response rating, Barnyardgrass",[8]; [22],50
same,"Plant response rating, Barnyardgrass",[8]; [23],30
same,Barnyardgrass plant response rating,[8]; [24],50
same,"Plant response rating, Ragweed",[9]; [22],100
same,"Plant response rating, Ragweed",[9]; [23],50
same,"Plant response rating, Ryegrass, Italian",[10]; [21],0
same,"Plant response rating, Ryegrass, Italian",[10]; [22],0
same,"Plant response rating, Ryegrass, Italian",[10]; [23],0
same,"Ryegrass, Italian plant response rating",[10]; [24],0
same,"Plant response rating, Corn",[11]; [22],20
same,"Plant response rating, Corn",[11]; [23],0
same,"Plant response rating, Pigweed",[12]; [21],90
same,"Plant response rating, Pigweed",[12]; [22],100
same,"Plant response rating, Pigweed",[12]; [23],70
same,Pigweed plant response rating,[12]; [24],100
same,"Plant response rating, Foxtail, Giant",[13]; [21],40
same,"Plant response rating, Foxtail, Giant",[13]; [22],50
same,"Plant response rating, Foxtail, Giant",[13]; [23],20
same,"Foxtail, Giant plant response rating",[13]; [24],90
same,"Plant response rating, Wheat",[14]; [22],0
same,"Plant response rating, Wheat",[14]; [23],0
same,"Plant response rating, Kochia",[15]; [21],60
same,"Plant response rating, Kochia",[15]; [22],100
same,"Plant response rating, Kochia",[15]; [23],70
same,Kochia plant response rating,[15]; [24],90
same,"Plant response rating, Galium",[16]; [22],100
same,"Plant response rating, Galium",[16]; [23],80
same,"Plant response rating, Blackgrass",[17]; [22],70
same,"Plant response rating, Blackgrass",[17]; [23],40
